Data published in patent US3978211A, “Lipiarmycin and its preparation” (Gruppo Lepetit S.p.A., priority 1973, dated 1976).
Values after ≈ are worked out from the molar mass of the structure shown. Residues, ends and D or L forms follow the SMILES beside them.

Assays:
[1] = tested on: Staphylococcus aureus ATCC 6538 resistant to novobiocin; test: Minimum inhibitory concentration, resistant strain (Table II); assay type: cell-based
Text: (§1) Lipiarmycin is also active against strains which are resistant to other antibiotics which are widely used in chemotherapeutic practice. As a representative example, in the following table the minimum inhibitory concentrations (M.I.C.), γ/ml., of lipiarmycin against Staphylococcus aureus strains resistant to several antibiotics are reported.

[2] = tested on: Staphylococcus aureus ATCC 6538 resistant to penicillin; test: as above; assay type: cell-based
Text: as §1

[3] = tested on: Staphylococcus aureus ATCC 6538 resistant to erythromycin; test: as above; assay type: cell-based
Text: as §1

[4] = tested on: Staphylococcus aureus ATCC 6538 resistant to oleandomycin; test: as above; assay type: cell-based
Text: as §1

[5] = tested on: Staphylococcus aureus ATCC 6538 resistant to streptomycin; test: as above; assay type: cell-based
Text: as §1

[6] = tested on: Staphylococcus aureus ATCC 6538 resistant to cephaloridine; test: as above; assay type: cell-based
Text: as §1

[7] = tested on: Staphylococcus aureus ATCC 6538 resistant to tetracycline; test: as above; assay type: cell-based
Text: as §1

[8] = tested on: Staphylococcus aureus ATCC 6538 resistant to streptothricin; test: as above; assay type: cell-based; details: S. aureus ATCC 6538 resistant to streptothricin
Text: as §1

[9] = tested on: Staphylococcus aureus ATCC 6538 resistant to bacitracin; test: as above; assay type: cell-based; details: S. aureus ATCC 6538 resistant to bacitracin
Text: as §1

[10] = tested on: Staphylococcus aureus ATCC 6538 resistant to neomycin; test: as above; assay type: cell-based; details: S. aureus ATCC 6538 resistant to neomycin
Text: as §1

[11] = tested on: Staphylococcus aureus ATCC 6538 resistant to chloramphenicol; test: as above; assay type: cell-based
Text: as §1

[12] = pH 7
[13] = assay type: physicochemical; details: methyl cellosolve
Text: An ionizable function is spectrophotometrically evidenced with pKa (in methyl cellosolve): 6.8

[14] = tested on: mice; test: Toxicity, LD50 i.p. in mice
[15] = tested on: Staphylococcus aureus Tour; test: Minimal inhibitory concentration; assay type: cell-based
Text: (§2) The antibiotic substance of the invention is active against bacteria, and in particular against the following microorganisms at the indicated concentrations.

[16] = tested on: Streptococcus mutans ATCC 25175; test: Minimal inhibitory concentration; assay type: cell-based
Text: as §2

[17] = tested on: Mycoplasma gallisepticum H 21 C.Z.B.; test: Minimal inhibitory concentration; assay type: cell-based
Text: as §2

[18] = tested on: Diplococcus pneumoniae UC 41; test: Minimal inhibitory concentration; assay type: cell-based
Text: as §2

[19] = tested on: Streptococcus hemolyticus C203; test: Minimal inhibitory concentration; assay type: cell-based
Text: as §2

[20] = tested on: Mycobacterium tub. H37Rv ATCC 9360; test: Minimal inhibitory concentration; assay type: cell-based
Text: as §2

[21] = tested on: Staphylococcus aureus ATCC 6538; test: Minimal inhibitory concentration; assay type: cell-based
Text: as §2

[22] = Staphylococcus aureus, ATCC6538, read-out: M.I.C. of other antibiotics

Question: For `CO[C@@H]1[C@@H](OC(N)=O)[C@@H](O)[C@H](Oc2ccc3c(O)c(NC(=O)c4ccc(O)c(CC=C(C)C)c4)c(=O)oc3c2C)OC1(C)C` [novobiocin, reference compound], which MIC [1, 22] is on record?
Answer: > 100 µg/mL

Question: With `CC1(C)S[C@@H]2[C@H](NC(=O)Cc3ccccc3)C(=O)N2[C@H]1C(=O)O` [penicillin, reference compound] as the compound, how does the MIC [2, 22] read?
Answer: > 100 µg/mL

Question: Which MIC [3, 22] does the source give for `CC[C@H]1OC(=O)[C@H](C)[C@@H](O[C@H]2C[C@@](C)(OC)[C@@H](O)[C@H](C)O2)[C@H](C)[C@@H](O[C@@H]2O[C@H](C)C[C@H](N(C)C)[C@H]2O)[C@](C)(O)C[C@@H](C)C(=O)[C@H](C)[C@@H](O)[C@]1(C)O` [erythromycin, reference compound] here?
Answer: > 100 µg/mL

Question: Which MIC [4, 22] does the source give for `CO[C@H]1C[C@H](O[C@H]2[C@H](C)[C@@H](O[C@@H]3O[C@H](C)C[C@H](N(C)C)[C@H]3O)[C@@H](C)C[C@@]3(CO3)C(=O)[C@H](C)[C@@H](O)[C@@H](C)[C@@H](C)OC(=O)[C@@H]2C)O[C@@H](C)[C@@H]1O` [oleandomycin, reference compound] here?
Answer: 50 µg/mL (≈ 72.7 µM)

Question: With `[H]/N=C(/N)N[C@H]1[C@H](O)[C@@H](O)[C@H](O[C@@H]2O[C@@H](C)[C@](O)(C=O)[C@H]2O[C@@H]2O[C@@H](CO)[C@H](O)[C@@H](O)[C@@H]2NC)[C@@H](N/C(N)=N\[H])[C@@H]1O` [streptomycin, reference compound] as the compound, how does the MIC [5, 22] read?
Answer: > 100 µg/mL

Question: For `O=C(Cc1cccs1)N[C@@H]1C(=O)N2C(C(=O)[O-])=C(C[n+]3ccccc3)CS[C@H]12` [cephaloridine, reference compound], which MIC [6, 22] is on record?
Answer: > 100 µg/mL

Question: For `CN(C)[C@@H]1C(O)=C(C(N)=O)C(=O)[C@@]2(O)C(O)=C3C(=O)c4c(O)cccc4[C@@](C)(O)[C@H]3C[C@@H]12` [tetracycline, reference compound], which MIC [7, 22] is on record?
Answer: > 100 µg/mL

Question: For streptothricin [reference compound], which “M.I.C. of other antibiotics” value [8] is on record?
Answer: > 100 µg/mL

Question: With `CC[C@H](C)[C@H](N)C1=N[C@H](C(=O)N[C@@H](CC(C)C)C(=O)N[C@H](CCC(=O)O)C(=O)N[C@H](C(=O)N[C@H]2CCCCNC(=O)[C@H](CC(N)=O)NC(=O)[C@@H](CC(=O)O)NC(=O)[C@H](Cc3cnc[nH]3)NC(=O)[C@@H](Cc3ccccc3)NC(=O)[C@H]([C@@H](C)CC)NC(=O)[C@@H](CCCN)NC2=O)[C@@H](C)CC)CS1` [bacitracin, reference compound] (HELM PEPTIDE1{[CC[C@H](C)[C@H](N)C1=N[C@H](C(=O)[*:2])CS1].L.[dE].I.K.[NCCC[C@@H](N[*:1])C(=O)[*:2]].I.[dF].H.[dD].N}$PEPTIDE1,PEPTIDE1,5:R3-11:R2$$$V2.0) as the compound, how does the “M.I.C. of other antibiotics” value [9] read?
Answer: > 100 µg/mL

Question: Which “M.I.C. of other antibiotics” value [10] does the source give for neomycin [reference compound] here?
Answer: > 100 µg/mL

Question: With `O=C(N[C@H](CO)[C@H](O)c1ccc([N+](=O)[O-])cc1)C(Cl)Cl` [chloramphenicol, reference compound] as the compound, how does the MIC [11, 22] read?
Answer: > 100 µg/mL

Question: Which M.I.C. of lipiarmycin ([1]; S. aureus ATCC 6538 resistant to novobiocin) does the source give for lipiarmycin here?
Answer: 2 µg/mL

Question: What about the M.I.C. of lipiarmycin ([6]; S. aureus ATCC 6538 resistant to cephaloridine) of the same compound?
Answer: 5 µg/mL

Question: What about the M.I.C. of lipiarmycin ([7]; S. aureus ATCC 6538 resistant to tetracycline) of the same compound?
Answer: 5 µg/mL

Question: And the M.I.C. of lipiarmycin ([11]; S. aureus ATCC 6538 resistant to chloramphenicol)?
Answer: 2 µg/mL

Question: What about the M.I.C. of lipiarmycin [8] of the same compound?
Answer: 5 µg/mL

Question: What about the M.I.C. of lipiarmycin [10] of the same compound?
Answer: 2 µg/mL

Question: And the M.I.C. of lipiarmycin ([3]; S. aureus ATCC 6538 resistant to erythromycin)?
Answer: 5 µg/mL

Question: What about the M.I.C. of lipiarmycin ([2]; S. aureus ATCC 6538 resistant to penicillin) of the same compound?
Answer: 2 µg/mL

Question: And the M.I.C. of lipiarmycin [9]?
Answer: 5 µg/mL

Question: What about the M.I.C. of lipiarmycin ([5]; S. aureus ATCC 6538 resistant to streptomycin) of the same compound?
Answer: 5 µg/mL

Question: And the M.I.C. of lipiarmycin ([4]; S. aureus ATCC 6538 resistant to oleandomycin)?
Answer: 5 µg/mL

Question: And the Solubility [12]?
Answer: Sparingly soluble to insoluble

Question: And the pKa [13]?
Answer: 6.8

Question: What about the LD50 [14] of the same compound?
Answer: about 500 mg./kg.

Question: What about the “MINIMAL INHIBITORY CONCENTRATION” value ([15]; Staphylococcus aureus Tour with 10 percent bovine serum) of the same compound?
Answer: 10 µg/mL

Question: And the “MINIMAL INHIBITORY CONCENTRATION” value ([15]; Staphylococcus aureus Tour, without serum)?
Answer: 2 µg/mL

Question: What about the “MINIMAL INHIBITORY CONCENTRATION” value [16] of the same compound?
Answer: 0.5 µg/mL

Question: What about the “MINIMAL INHIBITORY CONCENTRATION” value [17] of the same compound?
Answer: 50 µg/mL

Question: What about the “MINIMAL INHIBITORY CONCENTRATION” value [18] of the same compound?
Answer: 50 µg/mL

Question: What about the “MINIMAL INHIBITORY CONCENTRATION” value [19] of the same compound?
Answer: 10 µg/mL

Question: What about the “MINIMAL INHIBITORY CONCENTRATION” value [20] of the same compound?
Answer: 50 µg/mL

Question: What about the “MINIMAL INHIBITORY CONCENTRATION” value [21] of the same compound?
Answer: 2 µg/mL
